Assays:
Format in all cases: in vivo
[1] = tested on: Nezara viridula; experiment: Nezara viridula spray test (solvent 78.0 acetone / 1.5 dimethylformamide); settings: 96 h, barley plants, larvae, after 4 days
Protocol: (§1) Nezara viridula—Spray Test
(§2) Solvent: 78.0 parts by weight of acetone • • 1.5 parts by weight of dimethylformamide
(§3) Emulsifier: alkylarylpolyglycol ether
(§4) To produce a suitable preparation of active compound, 1 part by weight of active compound is mixed with the stated amount of solvent, and the concentrate is diluted with water, containing an emulsifier concentration of 1000 ppm, to the desired concentration. Further test concentrations are prepared by dilution with emulsifier containing water.
(§5) Barley plants (Hordeum vulgare) infested with larvae of the southern green stink bug (Nezara viridula) are sprayed with a test solution containing the desired concentration of the active ingredient.
(§6) After 4 days mortality in % is determined. 100% means all the stink bugs have been killed; 0% means none of the stink bugs have been killed.

[2] = tested on: Phaedon cochleariae; experiment: Phaedon cochleariae spray test; settings: foliar, 168 h, Chinese cabbage leaf disks, larvae, after 7 days
Protocol: Phaedon cochleariae—Spray Test
as §2, §3
as §4, with “solvents” for “solvent,”, “and” for “and the concentrate”
Chinese cabbage (Brassica pekinensis) leaf disks are sprayed with a preparation of the active ingredient of the desired concentration. Once dry, the leaf disks are infested with mustard beetle larvae (Phaedon cochleariae).
After 7 days mortality in % is determined. 100% means all beetle larvae have been killed and 0% means none of the beetle larvae have been killed.

[3] = tested on: Boophilus microplus; experiment: Boophilus microplus injection test; settings: 20 μg/animal injected; adult engorged female ticks; after 7 days
Protocol: Boophilus microplus—Injection Test
(§7) Solvent: dimethyl sulfoxide
To produce a suitable preparation of active compound, 10 mg of active compound are dissolved in 0.5 ml solvent, and the concentrate is diluted with solvent to the desired concentration.
Five adult engorged female ticks (Boophilus microplus) are injected with 1 μl compound solution into the abdomen. The ticks are transferred into replica plates and incubated in a climate chamber.
After 7 days egg deposition of fertile eggs is monitored. Eggs where fertility is not visible are stored in a climate chamber till hatching after about 42 days. An efficacy of 100% means all eggs are infertile; 0% means all eggs are fertile.

[4] = tested on: Nezara viridula; experiment: Nezara viridula spray test (solvent 52.5 acetone / 7 dimethylformamide); settings: 96 h, barley plants, larvae, after 4 days
Protocol: as §1
(§8) Solvent: 52.5 parts by weight of acetone • 7 parts by weight of dimethylformamide
(§9) Emulsifier: alkylaryl polyglycolether
(§10) To produce a suitable preparation of active compound, 1 part by weight of active compound is mixed with the stated amount of solvent, and the concentrate is diluted with water, containing an emulsifier concentration of 1000 ppm, to the desired concentration. Ammonium salt and/or penetration enhancer in a dosage of 1000 ppm are added to the desired concentration if necessary.
as §5, §6

[5] = tested on: Meloidogyne incognita; experiment: Meloidogyne incognita test; settings: 20 ppm; eggs and larvae, salad seeds in sand; after 14 days
Protocol: Meloidogyne incognita—Test
Solvent: 125.0 parts by weight of acetone
To produce a suitable preparation of active compound, 1 part by weight of active compound is mixed with the stated amount of solvent, and the concentrate is diluted with water to the desired concentration.
Vessels are filled with sand, a solution of the active ingredient, a suspension containing eggs and larvae of the southern root-knot nematode (Meloidogyne incognita) and salad seeds. The salad seeds germinate and the seedlings grow. Galls develop in the roots.
After 14 days the nematicidal activity is determined on the basis of the percentage of gall formation. 100% means no galls were found and 0% means the number of galls found on the roots of the treated plants was equal to that in untreated control plants.

[6] = tested on: Nilaparvata lugens; experiment: Nilaparvata lugens spray test (solvent 78.0 acetone / 1.5 dimethylformamide); settings: 96 h, rice plants, after 4 days
Protocol: (§11) Nilaparvata lugens—Spray Test
as §2, §3
as §4, with “solvents” for “solvent,”, “and” for “and the concentrate”
Rice plants (Oryza sativa) are sprayed with a preparation of the active ingredient of the desired concentration and the plants are infested with the brown planthopper (Nilaparvata lugens).
(§12) After 4 days mortality in % is determined. 100% means all planthoppers have been killed and 0% means none of the planthoppers have been killed.

[7] = tested on: Diabrotica balteata; experiment: Diabrotica balteata spray test; settings: 160 μg/well; germinated wheat seeds, larvae; after 7 days
Protocol: Diabrotica Balteata—Spray Test
as §2, §3, §4
Soaked wheat seeds (Triticum aestivum) are placed in a multiple well plate filled with agar and some water and are incubated for 1 day to germinate (5 seeds per well). The germinated wheat seeds are sprayed with a test solution containing the desired concentration of the active ingredient. Afterwards each unit is infected with 10-20 larvae of the banded cucumber beetle (Diabrotica balteata).
After 7 days efficacy in % is determined. 100% means all the seedlings have grown up like in the untreated, uninfected control; 0% means none of the seedlings have grown.

[8] = tested on: Myzus persicae; experiment: Myzus persicae spray test; settings: foliar, Chinese cabbage leaf disks, all instars, after 5-6 days
Protocol: Myzus persicae—Spray Test
(§13) Solvent: 78.0 parts by weight acetone • 1.5 parts by weight dimethylformamide
as §3
as §4, with “solvents” for “solvent,”, “and” for “and the concentrate”
Chinese cabbage (Brassica pekinensis) leaf disks infected with all instars of the green peach aphid (Myzus persicae), are sprayed with a preparation of the active ingredient of the desired concentration.
After 5-6 days mortality in % is determined. 100% means all aphids have been killed and 0% means none of the aphids have been killed.

[9] = tested on: Tetranychus urticae; experiment: Tetranychus urticae spray test OP-resistant; settings: foliar, 144 h, French bean leaf disks, all instars, after 6 days
Protocol: Tetranychus urticae—Spray Test OP-Resistant
as §13, §3
as §4, with “solvents” for “solvent,”, “and” for “and the concentrate”
French bean (Phaseolus vulgaris) leaf disks infected with all instars of the two spotted spidermite (Tetranychus urticae), are sprayed with a preparation of the active ingredient of the desired concentration.
After 6 days mortality in % is determined. 100% means all spider mites have been killed and 0% means none of the spider mites have been killed.

[10] = tested on: Nilaparvata lugens; experiment: Nilaparvata lugens spray test (solvent 52.5 acetone / 7 dimethylformamide); settings: 96 h, rice plants, larvae, after 4 days
Protocol: as §11, §8, §9
as §10, with “solvents” for “solvent,”, “and” for “and the concentrate”, “concentration. Further test concentrations are prepared by dilution with emulsifier containing water.” for “concentration.”
Rice plants (Oryza sativa) are treated by being sprayed with the desired concentration of the active compound and are infested with larvae of the brown planthopper (Nilaparvata lugens).
as §12

[11] = tested on: Lucilia cuprina; experiment: whole plant or invertebrate; settings: 48 h
Protocol: as §7
10 mg active compound are dissolved in 0.5 ml Dimethylsulfoxid. Serial dilutions are made to obtain the desired rates.
Approximately 20 1st instar larvae of the Australian sheep blowfly (Lucilia cuprina) are transferred into a test tube containing minced horse meat and compound solution of the desired concentration.
After 2 days mortality in % is determined. 100% means all the larvae have been killed; 0% means none of the larvae have been killed.

[12] = tested on: Ctenocephalides felis; experiment: whole plant or invertebrate; settings: po, 48 h
Protocol: Ctenocephalides felis—Oral Test
as §7
To produce a suitable preparation of active compound, 10 mg of active compound are dissolved in 0.5 ml solvent, and the concentrate is diluted with cattle blood to the desired concentration.
Approximately 20 adult unfed cat fleas (Ctenocephalides felis) are placed in flea chambers. The blood chamber, sealed with parafilm on the bottom, are filled with cattle blood supplied with compound solution and placed on the gauze covered top of the flea chamber, so that the fleas are able to suck the blood. The blood chamber is heated to 37° C. whereas the flea chamber is kept at room temperature.
After 2 days mortality in % is determined. 100% means all the fleas have been killed; 0% means none of the fleas have been killed.

[13] = tested on: Ctenocephalides felis; experiment: Ctenocephalides felis in-vitro contact test, adult cat flea; settings: 5 μg/cm^2 (=500 g/ha), after 48 hours
Protocol: Ctenocephalides felis—In-Vitro Contact Tests Adult Cat Flea
9 mg compound is solved in 1 ml acetone and diluted with acetone to the desired concentration. 250 μl of the test solution is filled in 25 ml glass test tubes and homogeneously distributed on the inner walls by rotation and tilting on a shaking device (2 h at 30 rpm). With a compound concentration of 900 ppm, an inner surface of 44.7 cm^2 and a homogeneous distribution, a dose of 5 μg/cm^2 is achieved.
After the solvent has evaporated, each test tube is filled with 5-10 adult cat fleas (Ctenocephalides felis), closed with a perforated lid and incubated in a lying position at room temperature and relative humidity. After 48 hours efficacy is determined. The fleas are patted on the ground of the tubes and are incubated on a heating plate at 45-50° C. for at most 5 minutes. Immotile or uncoordinated moving fleas, which are not able to escape the heat by climbing upwards, are marked as dead or moribund.
An efficacy of 100% means all fleas are dead or moribund; 0% means no fleas are dead or moribund.

[14] = tested on: Musca domestica; experiment: Musca domestica test; settings: Musca domestica, 48 h
Protocol: as §7
To produce a suitable preparation of active compound, 10 mg of active compound are dissolved in 0.5 ml solvent, and the concentrate is diluted with water to the desired concentration.
10 adult house flies (Musca domestica) are transferred into a container, containing a sponge soaked with a mixture of sugar solution and compound solution of the desired concentration.
After 2 days mortality in % is determined. 100% means all the flies have been killed; 0% means none of the flies have been killed.

[15] = tested on: Spodoptera frugiperda; experiment: Spodoptera frugiperda spray test; settings: 168 h, maize leaf sections, larvae, after 7 days
Protocol: Spodontera frugiperda—Spray Test
as §13, §3
as §4, with “solvents” for “solvent,”, “and” for “and the concentrate”
Maize (Zea mays) leaf sections are sprayed with a preparation of the active ingredient of the desired concentration. Once dry, the leaf sections are infested with fall armyworm larvae (Spodoptera frugiperda).
After 7 days mortality in % is determined. 100% means all caterpillars have been killed and 0% means none of the caterpillars have been killed.

Compound	mortality at 500 g/ha [1]	mortality at 500 g/ha [2]	efficacy (infertile eggs) [3]	mortality at 500 g/ha [4]	nematicidal activity (gall formation) [5]	mortality at 500 g/ha [6]	efficacy (seedling growth) [7]	mortality at 500 g/ha [8]	mortality at 500 g/ha [9]	mortality at 500 g/ha [10]	mortality at 100 ppm [11]	mortality at 100 ppm [12]	efficacy (fleas dead or moribund) [13]	mortality at 100 ppm [14]	mortality at 500 g/ha [15]
O=C(Nc1nc(-c2ccccc2C(F)(F)F)ns1)c1cccnc1C(F)(F)F [Compound I-1-20, 2-(trifluoromethyl)-N-{3-[2-(trifluoromethyl)phenyl]-1,2,4-thiadiazol-5-yl}nicotinamide]	≥ 90%	≥ 80%	100%	≥ 90%	100%	≥ 70%	100%	≥ 70%	≥ 70%	≥ 80%	100%	100%			
O=C(c1cccnc1C(F)(F)F)N(C(=O)c1cccnc1C(F)(F)F)c1nc(-c2c(F)cccc2F)ns1 [Compound I-1-31, N-[3-(2,6-Difluorophenyl)-1,2,4-thiadiazol-5-yl]-2-(trifluoromethyl)-N-{[2-(trifluoromethyl)pyridin-3-yl]carbonyl}nicotinamide]		≥ 80%	100%	≥ 90%					≥ 70%		100%	100%	100%	80%	
O=C(Nc1nc(-c2ccccc2OC(F)(F)F)ns1)c1cccnc1C(F)(F)F [Compound I-1-55, N-{3-[2-(Trifluoromethoxy)phenyl]-1,2,4-thiadiazol-5-yl}-2-(trifluoromethyl)nicotinamide]	≥ 90%	≥ 80%	100%	≥ 90%			100%	≥ 70%	≥ 70%		100%	100%			≥ 80%
O=C(Nc1nc(-c2cccc(C(F)(F)F)c2Cl)ns1)c1cccnc1C(F)(F)F [Compound I-1-62, N-{3-[2-Chloro-3-(trifluoromethyl)phenyl]-1,2,4-thiadiazol-5-yl}-2-(trifluoromethyl)nicotinamide]	≥ 90%	≥ 80%		≥ 90%				≥ 70%	≥ 70%	≥ 80%					≥ 80%
